These results are taken from patent US20230271954A1 (Gossamer Bio Services, Inc., priority 2020, published 2023).

One test concerns the target DGKα (Homo sapiens, UniProt P23743). The test is described as follows: DGKα biochemical assay (ADP-Glo). The following applies: read-out: DGK α IC50. An outline of the steps:
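ADP-Glo kinase assay using OAG/PS (1:2) lipid substrate, sonicated, in HEPES pH 7.0 buffer with MgCl2, CaCl2, DTT, BSA, Triton X-100. Enzyme preincubated with compound 30 min at RT; substrate with ATP (DGKα: 400 μM) added, 45 min RT. Luminescence read; % inhibition vs DMSO and no-enzyme controls.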
(In general: ADP-Glo turns the ADP formed in a reaction into a luminescent signal.)

For another test, the target named is T1, DGKζ (Homo sapiens, UniProt Q13574).
T1 construct: purchased Carna 12-110
T1 sequence (Q13574 1-929 isoform Q13574-4): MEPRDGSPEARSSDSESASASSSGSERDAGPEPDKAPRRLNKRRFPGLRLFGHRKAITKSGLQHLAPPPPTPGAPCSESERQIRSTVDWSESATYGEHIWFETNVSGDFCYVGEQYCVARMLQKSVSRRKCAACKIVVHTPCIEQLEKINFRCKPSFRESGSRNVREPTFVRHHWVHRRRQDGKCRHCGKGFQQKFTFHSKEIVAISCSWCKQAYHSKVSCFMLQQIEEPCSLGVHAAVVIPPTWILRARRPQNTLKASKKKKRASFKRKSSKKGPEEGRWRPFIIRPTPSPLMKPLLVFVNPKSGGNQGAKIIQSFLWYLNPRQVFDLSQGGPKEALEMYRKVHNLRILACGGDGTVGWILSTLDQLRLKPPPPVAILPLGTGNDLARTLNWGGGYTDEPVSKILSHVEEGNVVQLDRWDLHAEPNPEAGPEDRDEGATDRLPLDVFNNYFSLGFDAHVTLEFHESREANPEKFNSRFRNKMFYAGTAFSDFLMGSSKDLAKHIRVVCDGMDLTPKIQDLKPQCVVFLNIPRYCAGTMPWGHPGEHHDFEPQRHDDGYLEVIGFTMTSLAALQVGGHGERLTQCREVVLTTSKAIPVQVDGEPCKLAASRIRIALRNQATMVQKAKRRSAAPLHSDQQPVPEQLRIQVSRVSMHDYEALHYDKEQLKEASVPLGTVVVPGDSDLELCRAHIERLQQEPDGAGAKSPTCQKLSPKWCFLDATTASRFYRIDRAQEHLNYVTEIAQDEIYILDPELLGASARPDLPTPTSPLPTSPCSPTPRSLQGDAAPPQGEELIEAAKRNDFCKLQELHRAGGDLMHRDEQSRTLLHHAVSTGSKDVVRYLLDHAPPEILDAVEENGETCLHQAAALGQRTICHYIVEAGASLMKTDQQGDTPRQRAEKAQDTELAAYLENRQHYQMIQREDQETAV
The test is described as follows: DGKζ biochemical assay (ADP-Glo). The following applies: read-out: DGK ζ IC50.

Each structure is given as a SMILES string. Bounds are passed on as bounds.

Sequence of DGKα (P23743 whole entry): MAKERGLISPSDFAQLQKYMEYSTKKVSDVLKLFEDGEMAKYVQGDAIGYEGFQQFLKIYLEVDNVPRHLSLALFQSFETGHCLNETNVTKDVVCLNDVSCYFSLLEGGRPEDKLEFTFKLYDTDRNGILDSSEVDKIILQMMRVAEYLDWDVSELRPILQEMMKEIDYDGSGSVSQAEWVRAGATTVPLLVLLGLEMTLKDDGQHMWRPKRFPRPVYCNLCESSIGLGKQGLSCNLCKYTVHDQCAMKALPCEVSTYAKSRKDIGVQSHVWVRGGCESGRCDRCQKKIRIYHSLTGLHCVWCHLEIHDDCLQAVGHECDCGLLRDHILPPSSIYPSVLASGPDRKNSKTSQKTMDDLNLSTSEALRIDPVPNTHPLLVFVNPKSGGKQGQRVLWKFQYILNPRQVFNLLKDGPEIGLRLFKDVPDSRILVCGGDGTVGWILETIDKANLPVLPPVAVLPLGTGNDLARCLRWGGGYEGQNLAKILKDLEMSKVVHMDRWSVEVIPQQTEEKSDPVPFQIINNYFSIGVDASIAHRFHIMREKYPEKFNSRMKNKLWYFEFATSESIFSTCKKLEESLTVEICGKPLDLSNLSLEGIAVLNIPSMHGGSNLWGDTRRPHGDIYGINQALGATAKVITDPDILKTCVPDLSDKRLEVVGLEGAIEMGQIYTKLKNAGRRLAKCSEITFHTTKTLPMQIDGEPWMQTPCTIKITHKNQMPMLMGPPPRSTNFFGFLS

Regarding `Cn1c(=O)c(C#N)c(N(C)[C@H]2CC[C@H](N(CC3CC3)c3ccc(F)cn3)CC2)c2nc(Cl)ccc21` [Example 3L, trans-6-chloro-4-((4-((cyclopropylmethyl)(5-fluoropyridin-2-yl)amino)cyclohexyl)(methyl)amino)-1-methyl-2-oxo-1,2-dihydro-1,5-naphthyridine-3-carbonitrile], the figures for the concentration for half-maximal inhibition (IC50) on DGKα and at DGKζ were 10 to 100 nM and 100 to 1000 nM, respectively.
With `Cc1cc(F)ccc1N(CC1CC1)[C@H]1CC[C@@H](N(C)c2cc(=O)n(C)c3ccc(C#N)nc23)CC1` [Example 144, cis-8-((4-((cyclopropylmethyl)(4-fluoro-2-methylphenyl)amino)cyclohexyl)(methyl)amino)-5-methyl-6-oxo-5,6-dihydro-1,5-naphthyridine-2-carbonitrile], the IC50 at DGKα and on DGKζ was 100 to 1000 nM in each case.
With `Cc1cc(N(CC2CC2)[C@H]2CC[C@H](N(C)c3c(C#N)c(=O)n(C)c4ccc(C#N)nc34)CC2)ccc1F` [Example 125, trans-8-((4-((cyclopropylmethyl)(4-fluoro-3-methylphenyl)amino)cyclohexyl)(methyl)amino)-5-methyl-6-oxo-5,6-dihydro-1,5-naphthyridine-2,7-dicarbonitrile], the 50% inhibitory concentration (IC50) on DGKα and at DGKζ was 100 to 1000 nM in each case.
On to `Cn1c(=O)oc2ccc(N(CC3CC3)[C@H]3CC[C@@H](N(C)c4c(C#N)c(=O)n(C)c5ccc(C#N)nc45)CC3)cc21` [Example 207, cis-8-((-4-((cyclopropylmethyl)(3-methyl-2-oxo-2,3-dihydrobenzo[d]oxazol-5-yl)amino)cyclohexyl) (methyl)amino)-5-methyl-6-oxo-5,6-dihydro-1,5-naphthyridine-2,7-dicarbonitrile], for which the IC50 on DGKα and at DGKζ was at least 1000 nM in each case.
On to `Cn1c(=O)c(C#N)c(N(C)[C@H]2CC[C@@H](N(c3ccc(F)cc3F)C3CC3)CC2)c2nc(Cl)ccc21` [Example 3CC, cis-6-Chloro-4-[[4-(N-cyclopropyl-2,4-difluoro-anilino)cyclohexyl]-methyl-amino]-1-methyl-2-oxo-1,5-naphthyridine-3-carbonitrile], for which the IC50 at DGKα is 100 to 1000 nM; at DGKζ, at least 1000 nM.
For the compound `Cn1c(=O)c(C#N)c(N(C)[C@H]2CC[C@@H](N(C[C@H]3CCCOC3)c3ccc4c(c3)OCO4)CC2)c2nc(C#N)ccc21` [Example 143, cis-8-((-4-(benzo[d][1,3]dioxol-5-yl(((R)-tetrahydro-2H-pyran-3-yl)methyl)amino)cyclohexyl)(methyl)amino)-5-methyl-6-oxo-5,6-dihydro-1,5-naphthyridine-2,7-dicarbonitrile], the concentration for half-maximal inhibition (IC50) is under 10 nM at DGKα and 10 to 100 nM on DGKζ.

One may read the IC50 as the point on the concentration scale where inhibition reaches its midpoint.
